Data published in ChEMBL document CHEMBL1152429, “Design and synthesis of new 1,3-benzthiazinan-4-one derivatives as selective cyclooxygenase (COX-2) inhibitors” (Bioorg Med Chem, 2009).

Tests used:
[1] = biological target: T1, Prostaglandin G/H synthase 1 (Ovis aries, UniProt P05979)
T1 sequence (P05979 whole entry): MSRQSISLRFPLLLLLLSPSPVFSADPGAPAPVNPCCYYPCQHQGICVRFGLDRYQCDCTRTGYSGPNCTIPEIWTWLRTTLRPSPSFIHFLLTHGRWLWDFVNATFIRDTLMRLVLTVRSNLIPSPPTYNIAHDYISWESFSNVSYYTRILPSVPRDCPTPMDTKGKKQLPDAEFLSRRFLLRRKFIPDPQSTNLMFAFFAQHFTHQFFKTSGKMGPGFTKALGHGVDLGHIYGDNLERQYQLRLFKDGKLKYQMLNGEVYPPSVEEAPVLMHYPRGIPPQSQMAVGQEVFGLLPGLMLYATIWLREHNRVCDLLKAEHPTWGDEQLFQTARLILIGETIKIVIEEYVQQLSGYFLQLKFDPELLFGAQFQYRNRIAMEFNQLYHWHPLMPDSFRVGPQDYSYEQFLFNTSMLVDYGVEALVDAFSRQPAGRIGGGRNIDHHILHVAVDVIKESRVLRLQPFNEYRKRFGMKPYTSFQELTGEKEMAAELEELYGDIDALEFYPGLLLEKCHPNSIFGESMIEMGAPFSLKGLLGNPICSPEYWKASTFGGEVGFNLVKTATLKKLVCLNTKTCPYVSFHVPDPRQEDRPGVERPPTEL
Description: Inhibition of ovine COX1 by chemiluminescence assay

Ovis aries = species: Ovis aries; assay: Selectivity index, ratio of IC50 for ovine COX1 to IC50 for ovine COX2

Structure (SMILES) | IC50 [1] [µM] | Ratio IC50 (Ovis aries)
Cc1ccc(N2C(=O)c3ccccc3SC2c2ccc(S(C)(=O)=O)cc2)cc1 (configuration not stated) | 16.1 | 252
COc1ccc(N2C(=O)c3ccccc3SC2c2ccc(S(C)(=O)=O)cc2)cc1 (configuration not stated) | 14.8 | –
CS(=O)(=O)c1ccc(C2Sc3ccccc3C(=O)N2c2ccc(F)cc2)cc1 (configuration not stated) | 13 | –

The next lines start with the values.

IC50 [1] [µM] | Ratio IC50 (Ovis aries) | Structure (SMILES)
16.5 | – | CS(=O)(=O)c1ccc(C2Sc3ccccc3C(=O)N2c2ccccc2)cc1 (configuration not stated)
15.8 | – | CS(=O)(=O)c1ccc(C2Sc3ccccc3C(=O)N2Cc2ccccc2)cc1 (configuration not stated)
15.9 | – | CS(=O)(=O)c1ccc(C2Sc3ccccc3C(=O)N2CCc2ccccc2)cc1 (configuration not stated)
